pIC50: −log10 of the molar value. Calls of active or inactive are those of the source. The rule behind the calls is not given here.
Tests used:
[1] = AUCinf in Sprague-Dawley rat at 2 mg/kg, po measured up to 8 hrs by LC-MS/MS analysis; format: ADME, organism-based; conditions: in vivo
[2] = Efflux ratio in human Caco-2 cells; format: ADME, cell-based
[3] = Clearance in CD-1 mouse at 0.5 mg/kg, iv measured up to 24 hrs by LC-MS/MS analysis; format: ADME, organism-based; conditions: in vivo
[4] = Apparent permeability of compound from apical to basolateral side in human Caco-2 cells; format: ADME, cell-based; conditions: read-out: permeability
hERG (KCNH2) = hERG (KCNH2) (Homo sapiens, UniProt Q12809); assay: Inhibition of hERG at 10 uM by high throughput cell based patch clamp assay; format: toxicity
CYP1A2 = biological target: T1, CYP1A2 (Homo sapiens, UniProt P05177); assay: Time dependent inhibition of CYP1A2 (unknown origin) at 30 uM measured after 30 mins relative to control; format: ADME; conditions: read-out: TDI
T1 sequence (P05177 whole entry): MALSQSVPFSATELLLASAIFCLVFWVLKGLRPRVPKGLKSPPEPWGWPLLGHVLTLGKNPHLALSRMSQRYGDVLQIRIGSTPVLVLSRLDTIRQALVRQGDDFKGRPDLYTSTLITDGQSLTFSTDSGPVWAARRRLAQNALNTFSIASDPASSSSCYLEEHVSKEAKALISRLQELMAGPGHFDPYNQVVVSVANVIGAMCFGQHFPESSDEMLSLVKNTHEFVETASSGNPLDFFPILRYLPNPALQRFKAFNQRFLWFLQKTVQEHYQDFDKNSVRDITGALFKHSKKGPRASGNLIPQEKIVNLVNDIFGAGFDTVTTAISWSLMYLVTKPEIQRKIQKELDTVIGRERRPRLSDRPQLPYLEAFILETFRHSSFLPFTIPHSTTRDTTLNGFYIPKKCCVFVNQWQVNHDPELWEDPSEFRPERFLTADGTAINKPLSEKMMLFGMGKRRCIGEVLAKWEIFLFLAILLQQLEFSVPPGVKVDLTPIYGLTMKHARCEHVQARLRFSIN

CYP2D6 = CYP2D6 (Homo sapiens, UniProt P10635); assay: Time dependent inhibition of CYP2D6 (unknown origin) at 30 uM measured after 30 mins relative to control; format: ADME; conditions: read-out: TDI
CYP3A4 [5] = biological target: T2, CYP3A4 (Homo sapiens, UniProt P08684); assay: Time dependent inhibition of CYP3A4 (unknown origin) using midazolam as substrate at 30 uM measured after 30 mins relative to control; format: ADME; conditions: probe midazolam, read-out: TDI
CYP3A4 [6] = biological target: T2, CYP3A4; assay: Time dependent inhibition of CYP3A4 (unknown origin) using testosterone as substrate at 30 uM measured after 30 mins relative to control; format: ADME; conditions: probe testosterone, read-out: TDI
Cytochrome P450 2C19 = Cytochrome P450 2C19 (Homo sapiens, UniProt P33261); assay: Inhibition of CYP2C19 (unknown origin) measured after 30 mins; format: ADME
Cytochrome P450 2D6 = Cytochrome P450 2D6 (Homo sapiens, UniProt P10635); assay: Inhibition of CYP2D6 (unknown origin) measured after 30 mins; format: ADME
Cytochrome P450 3A4 [7] = biological target: T3, Cytochrome P450 3A4 (Homo sapiens, UniProt P08684); assay: Inhibition of CYP3A4 (unknown origin) using midazolam as substrate measured after 30 mins; format: ADME
Cytochrome P450 3A4 [8] = biological target: T3, Cytochrome P450 3A4; assay: Inhibition of CYP3A4 (unknown origin) using testosterone as substrate measured after 30 mins; format: ADME
[9] = Selectivity ratio, ratio of Ki for MERTK (unknown origin) to Ki for AXL (unknown origin)
[10] = Selectivity ratio, ratio of Ki for DRAK1 (unknown origin) to Ki for AXL (unknown origin)
[11] = Selectivity ratio, ratio of Ki for TRKA (unknown origin) to Ki for AXL (unknown origin)
786-0 [12] = assay: Anti-tumor activity against human 786-0 cells xenografted in mouse model assessed as reduction in tumor volume in presence of sunitinib at 30 mg/kg, po once daily for 15 days; format: functional, organism-based; conditions: time 15.0 day
786-0 [13] = assay: Anti-tumor activity against human 786-0 cells xenografted in mouse model assessed as tumor growth inhibition in presence of sunitinib at 10 mg/kg, po once daily for 15 days; format: functional, organism-based; conditions: time 15.0 day
786-0 [14] = assay: Anti-tumor activity against human 786-0 cells xenografted in mouse model assessed as increase in soluble AXL level in plasma at 30 mg/kg, po once daily for 15 days; format: functional, organism-based; conditions: time 15.0 day
[15] = Toxicity in mouse xenografted with human 786-0 cells assessed as body weight at 30 mg/kg, po once daily for 15 days; format: organism-based; conditions: in vivo, 360 h, time 15 day
[16] = Half life in human (healthy individuals) at 30 mg, single oral dose; format: ADME; conditions: in vivo
[17] = Half life in human (healthy individuals) at 90 mg, single oral dose; format: ADME; conditions: in vivo
[18] = Half life in human (healthy individuals) at 270 mg, single oral dose; format: ADME; conditions: in vivo
[19] = Tmax in human (healthy individuals) at 10 mg, single oral dose; format: ADME; conditions: in vivo
[20] = Tmax in human (healthy individuals) at 30 mg, single oral dose; format: ADME; conditions: in vivo
[21] = Cmax in human (healthy individuals) at 90 mg, single oral dose measured uo to 120 hrs; format: ADME; conditions: in vivo
[22] = AUC (0 to 24 hrs) in human (healthy individuals) at 30 mg, single oral dose; format: ADME; conditions: in vivo
[23] = AUC (0 to 120 hrs) in human (healthy individuals) at 10 mg, single oral dose; format: ADME; conditions: in vivo
[24] = AUC (0 to 120 hrs) in human (healthy individuals) at 30 mg, single oral dose; format: ADME; conditions: in vivo
[25] = AUC (0 to 120 hrs) in human (healthy individuals) at 270 mg, single oral dose; format: ADME; conditions: in vivo

T2 sequence (P08684 whole entry): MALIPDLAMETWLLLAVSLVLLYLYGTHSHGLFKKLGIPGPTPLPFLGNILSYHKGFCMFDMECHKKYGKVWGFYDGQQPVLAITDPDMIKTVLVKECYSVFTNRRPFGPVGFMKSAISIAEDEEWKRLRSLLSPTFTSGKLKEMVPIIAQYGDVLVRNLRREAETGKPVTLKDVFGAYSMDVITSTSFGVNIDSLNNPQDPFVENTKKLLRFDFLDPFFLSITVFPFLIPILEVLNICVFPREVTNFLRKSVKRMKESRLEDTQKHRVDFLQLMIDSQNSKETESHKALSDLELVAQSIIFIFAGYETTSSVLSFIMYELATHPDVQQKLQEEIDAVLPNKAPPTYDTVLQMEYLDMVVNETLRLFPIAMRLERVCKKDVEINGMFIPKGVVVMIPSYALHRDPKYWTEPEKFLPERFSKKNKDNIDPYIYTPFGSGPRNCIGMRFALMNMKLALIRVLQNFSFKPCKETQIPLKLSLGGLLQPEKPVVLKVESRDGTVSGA
T3 sequence (P08684 whole entry): as above
Chain of Cytochrome P450 2D6 (P10635 whole entry): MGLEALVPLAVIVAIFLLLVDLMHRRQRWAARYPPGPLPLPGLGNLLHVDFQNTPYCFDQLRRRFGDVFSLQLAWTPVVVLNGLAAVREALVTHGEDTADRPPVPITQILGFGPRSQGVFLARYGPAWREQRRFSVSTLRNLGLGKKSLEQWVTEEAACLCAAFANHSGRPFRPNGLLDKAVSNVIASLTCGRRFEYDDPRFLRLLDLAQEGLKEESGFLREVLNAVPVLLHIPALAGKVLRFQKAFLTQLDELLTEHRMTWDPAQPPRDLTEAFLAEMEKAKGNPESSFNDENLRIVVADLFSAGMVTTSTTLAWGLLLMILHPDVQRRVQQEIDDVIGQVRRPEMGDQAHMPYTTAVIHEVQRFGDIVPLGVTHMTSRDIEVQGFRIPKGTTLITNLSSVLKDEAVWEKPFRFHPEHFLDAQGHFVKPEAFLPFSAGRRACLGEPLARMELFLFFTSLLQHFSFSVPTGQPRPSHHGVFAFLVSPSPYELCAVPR
Chain of CYP2D6 (P10635 whole entry): as above
Chain of hERG (KCNH2) (Q12809 whole entry): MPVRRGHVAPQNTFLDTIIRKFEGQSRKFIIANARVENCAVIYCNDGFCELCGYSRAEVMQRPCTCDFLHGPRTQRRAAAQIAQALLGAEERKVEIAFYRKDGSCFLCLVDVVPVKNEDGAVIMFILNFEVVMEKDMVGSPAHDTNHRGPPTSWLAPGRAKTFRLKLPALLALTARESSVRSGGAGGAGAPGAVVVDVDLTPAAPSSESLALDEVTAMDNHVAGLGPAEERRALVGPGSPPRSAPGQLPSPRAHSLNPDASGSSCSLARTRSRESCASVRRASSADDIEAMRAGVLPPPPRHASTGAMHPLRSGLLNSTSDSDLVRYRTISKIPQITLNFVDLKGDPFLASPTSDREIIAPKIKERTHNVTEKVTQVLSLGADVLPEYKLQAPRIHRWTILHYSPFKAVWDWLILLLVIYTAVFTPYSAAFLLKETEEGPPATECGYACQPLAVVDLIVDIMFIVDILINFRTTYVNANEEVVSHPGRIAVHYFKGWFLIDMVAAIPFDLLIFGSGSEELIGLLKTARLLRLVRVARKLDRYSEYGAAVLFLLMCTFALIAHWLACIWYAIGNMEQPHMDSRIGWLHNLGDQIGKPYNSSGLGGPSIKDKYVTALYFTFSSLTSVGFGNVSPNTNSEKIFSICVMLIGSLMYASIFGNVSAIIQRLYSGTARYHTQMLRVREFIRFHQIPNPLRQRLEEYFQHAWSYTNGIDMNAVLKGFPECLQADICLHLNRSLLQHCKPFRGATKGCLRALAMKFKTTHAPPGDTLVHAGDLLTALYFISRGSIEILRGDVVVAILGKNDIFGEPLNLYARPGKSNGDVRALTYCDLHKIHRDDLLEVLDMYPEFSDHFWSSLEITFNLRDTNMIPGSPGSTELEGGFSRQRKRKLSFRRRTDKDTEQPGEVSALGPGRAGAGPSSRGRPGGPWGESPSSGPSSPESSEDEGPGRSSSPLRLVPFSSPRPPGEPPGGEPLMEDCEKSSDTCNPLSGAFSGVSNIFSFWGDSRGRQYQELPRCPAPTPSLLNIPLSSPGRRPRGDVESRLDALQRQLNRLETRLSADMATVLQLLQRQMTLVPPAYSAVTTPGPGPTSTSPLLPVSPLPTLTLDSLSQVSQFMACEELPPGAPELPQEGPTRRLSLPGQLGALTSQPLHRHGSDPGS
Chain of Cytochrome P450 2C19 (P33261 whole entry): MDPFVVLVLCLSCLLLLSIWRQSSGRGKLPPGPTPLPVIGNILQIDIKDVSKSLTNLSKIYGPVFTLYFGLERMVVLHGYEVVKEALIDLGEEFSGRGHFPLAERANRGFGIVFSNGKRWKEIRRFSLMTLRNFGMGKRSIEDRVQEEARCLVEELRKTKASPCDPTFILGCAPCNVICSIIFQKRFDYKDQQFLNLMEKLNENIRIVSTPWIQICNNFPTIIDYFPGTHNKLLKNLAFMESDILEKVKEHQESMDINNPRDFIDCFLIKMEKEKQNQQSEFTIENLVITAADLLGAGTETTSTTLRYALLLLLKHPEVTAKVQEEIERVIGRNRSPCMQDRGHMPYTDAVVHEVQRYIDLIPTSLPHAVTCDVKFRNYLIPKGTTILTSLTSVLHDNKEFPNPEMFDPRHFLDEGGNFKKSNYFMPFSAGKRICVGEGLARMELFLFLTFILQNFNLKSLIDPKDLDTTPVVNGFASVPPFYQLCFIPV

Question: For `Cc1cccnc1-c1ccc(-c2n[nH]c3ncc(-c4ccc5c(c4)CC[C@@H](N4C6COCC4C6)CC5)cc23)nc1`, which AUC(0-inf) [1] is on record?
Answer: 1800 ng·h/mL

Question: What about the efflux ratio [2] of the same molecule?
Answer: 1.9

Question: What about the clearance [3] of the same molecule?
Answer: 8.83 mL/min/kg

Question: And the Papp A→B [4]?
Answer: 1.7 ×10⁻⁶ cm/s

Question: And the inhibition at 10 µM (hERG (KCNH2))?
Answer: 56%

Question: What about the inhibition at 0.5 h, 30 µM (CYP1A2) of the same molecule?
Answer: 0%

Question: And the inhibition at 0.5 h, 30 µM (CYP2D6)?
Answer: 0%

Question: What about the inhibition at 0.5 h, 30 µM (CYP3A4 [5]) of the same molecule?
Answer: 16%

Question: And the inhibition at 0.5 h, 30 µM (CYP3A4 [6])?
Answer: 16%

Question: What about the pIC50 (Cytochrome P450 2C19) of the same molecule?
Answer: 4.77

Question: And the pIC50 (Cytochrome P450 2D6)?
Answer: 4.96

Question: And the pIC50 (Cytochrome P450 3A4 [7])?
Answer: 4.77

Question: And the pIC50 (Cytochrome P450 3A4 [8])?
Answer: 5.25

Question: What about the Ratio Ki [9] of the same molecule?
Answer: 880

Question: What about the Ratio Ki [10] of the same molecule?
Answer: 47

Question: And the Ratio Ki [11]?
Answer: 330

Question: What about the Activity (786-0 [12]) of the same molecule?
Answer: Active

Question: And the Activity (786-0 [13])?
Answer: Active

Question: And the Activity (786-0 [14])?
Answer: Active

Question: What about the Activity [15] of the same molecule?
Answer: Non-toxic

Question: And the half-life [16]?
Answer: 72 h

Question: And the half-life [17]?
Answer: 54 h

Question: And the half-life [18]?
Answer: 40 h

Question: And the Tmax [19]?
Answer: 6 h

Question: And the Tmax [20]?
Answer: 8 h

Question: What about the Cmax [21] of the same molecule?
Answer: 40 ng/mL

Question: And the AUC(0-t) [22]?
Answer: 189 ng·h/mL

Question: What about the AUC(0-t) [23] of the same molecule?
Answer: 180 ng·h/mL

Question: And the AUC(0-t) [24]?
Answer: 614 ng·h/mL

Question: And the AUC(0-t) [25]?
Answer: 7490 ng·h/mL

— ChEMBL document CHEMBL6134930, “Discovery of AB801, a Potent and Selective Inhibitor of AXL Receptor Tyrosine Kinase for Use in Cancer Therapy” (J Med Chem, 2025)
